Results published in ChEMBL document CHEMBL4507278 (2021).

Columns and labels:
[1] = target: Mitotic checkpoint serine/threonine-protein kinase BUB1 (Homo sapiens) (UniProt O43683); conditions: Compound concentration 1000.0 nM
[2] = target: Calcium/calmodulin-dependent protein kinase type II subunit gamma (Homo sapiens) (UniProt Q13555); conditions: Compound concentration 1000.0 nM
[3] = target: Cyclin-dependent kinase 4 (Homo sapiens) (UniProt P11802); conditions: Compound concentration 1000.0 nM
[4] = target: Dual specificity protein kinase CLK4 (Homo sapiens) (UniProt Q9HAZ1); conditions: Compound concentration 1000.0 nM
[5] = target: Tyrosine-protein kinase CSK (Homo sapiens) (UniProt P41240); conditions: Compound concentration 1000.0 nM
[6] = target: Casein kinase I isoform epsilon (Homo sapiens) (UniProt P49674); conditions: Compound concentration 1000.0 nM
[7] = target: Serine/threonine-protein kinase DCLK2 (Homo sapiens) (UniProt Q8N568); conditions: Compound concentration 1000.0 nM
[8] = target: Serine/threonine-protein kinase 17B (Homo sapiens) (UniProt O94768); conditions: Compound concentration 1000.0 nM
[9] = tested on: Epidermal growth factor receptor (Homo sapiens), P00533 [G719C]; conditions: Compound concentration 1000.0 nM
[10] = tested on: Epidermal growth factor receptor (Homo sapiens), P00533 [UNDEFINED MUTATION]; conditions: Compound concentration 1000.0 nM
[11] = target: Eukaryotic translation initiation factor 2-alpha kinase 1 (Homo sapiens) (UniProt Q9BQI3); conditions: Compound concentration 1000.0 nM
[12] = target: Ephrin type-A receptor 3 (Homo sapiens) (UniProt P29320); conditions: Compound concentration 1000.0 nM
[13] = target: Receptor tyrosine-protein kinase erbB-2 (Homo sapiens) (UniProt P04626); conditions: Compound concentration 1000.0 nM
[14] = target: Focal adhesion kinase 1 (Homo sapiens) (UniProt Q05397); conditions: Compound concentration 1000.0 nM
[15] = target: Fibroblast growth factor receptor 4 (Homo sapiens) (UniProt P22455); conditions: Compound concentration 1000.0 nM
[16] = tested on: Receptor-type tyrosine-protein kinase FLT3 (Homo sapiens), P36888 [K663Q]; conditions: Compound concentration 1000.0 nM
[17] = tested on: Receptor-type tyrosine-protein kinase FLT3 (Homo sapiens), P36888 [R834Q]; conditions: Compound concentration 1000.0 nM
[18] = target: G protein-coupled receptor kinase 3 (Homo sapiens) (UniProt P35626); conditions: Compound concentration 1000.0 nM
[19] = target: Inhibitor of nuclear factor kappa-B kinase subunit beta (Homo sapiens) (UniProt O14920); conditions: Compound concentration 1000.0 nM
[20] = target: Tyrosine-protein kinase JAK1 (Homo sapiens) (UniProt P23458); conditions: Compound concentration 1000.0 nM
[21] = target: Mitogen-activated protein kinase 10 (Homo sapiens) (UniProt P53779); conditions: Compound concentration 1000.0 nM
[22] = target: Tyrosine-protein kinase Lck (Homo sapiens) (UniProt P06239); conditions: Compound concentration 1000.0 nM
[23] = tested on: Leucine-rich repeat serine/threonine-protein kinase 2 (Homo sapiens), Q5S007 [G2019S]; conditions: Compound concentration 1000.0 nM
[24] = target: Serine/threonine-protein kinase MAK (Homo sapiens) (UniProt P20794); conditions: Compound concentration 1000.0 nM
[25] = target: MAP kinase-interacting serine/threonine-protein kinase 1 (Homo sapiens) (UniProt Q9BUB5); conditions: Compound concentration 1000.0 nM
[26] = target: Serine/threonine-protein kinase 24 (Homo sapiens) (UniProt Q9Y6E0); conditions: Compound concentration 1000.0 nM
[27] = target: Myosin light chain kinase family member 4 (Homo sapiens) (UniProt Q86YV6); conditions: Compound concentration 1000.0 nM
[28] = target: Serine/threonine-protein kinase Nek6 (Homo sapiens) (UniProt Q9HC98); conditions: Compound concentration 1000.0 nM
[29] = target: Cyclin-dependent kinase 18 (Homo sapiens) (UniProt Q07002); conditions: Compound concentration 1000.0 nM
[30] = target: Platelet-derived growth factor receptor alpha (Homo sapiens) (UniProt P16234); conditions: Compound concentration 1000.0 nM
[31] = target: Cyclin-dependent kinase 2 homolog (Plasmodium falciparum (isolate 3D7)) (UniProt P61075); conditions: Compound concentration 1000.0 nM
[32] = tested on: Phosphatidylinositol 4,5-bisphosphate 3-kinase catalytic subunit alpha isoform (Homo sapiens), P42336 [M1043I]; conditions: Compound concentration 1000.0 nM
[33] = tested on: Proto-oncogene tyrosine-protein kinase receptor Ret (Homo sapiens), P07949 [M918T]; conditions: Compound concentration 1000.0 nM
[34] = target: Ribosomal protein S6 kinase alpha-4 (Homo sapiens) (UniProt O75676); conditions: Compound concentration 1000.0 nM
[35] = target: Uncharacterized serine/threonine-protein kinase SBK3 (Homo sapiens) (UniProt P0C264); conditions: Compound concentration 1000.0 nM
[36] = target: Serine/threonine-protein kinase SIK1 (Homo sapiens) (UniProt P57059); conditions: Compound concentration 1000.0 nM
[37] = target: TGF-beta receptor type-1 (Homo sapiens) (UniProt P36897); conditions: Compound concentration 1000.0 nM
[38] = target: TGF-beta receptor type-2 (Homo sapiens) (UniProt P37173); conditions: Compound concentration 1000.0 nM
[39] = target: Tyrosine-protein kinase receptor Tie-1 (Homo sapiens) (UniProt P35590); conditions: Compound concentration 1000.0 nM
[40] = target: NT-3 growth factor receptor (Homo sapiens) (UniProt Q16288); conditions: Compound concentration 1000.0 nM
[41] = target: Non-receptor tyrosine-protein kinase TYK2 (Homo sapiens) (UniProt P29597); conditions: Compound concentration 1000.0 nM
[42] = target: Mitogen-activated protein kinase kinase kinase 19 (Homo sapiens) (UniProt Q56UN5); conditions: Compound concentration 1000.0 nM
[43] = target: D(2) dopamine receptor (Homo sapiens) (UniProt P14416); conditions: Compound concentration 10.0 uM
[44] = target: Alpha-2B adrenergic receptor (Homo sapiens) (UniProt P18089); conditions: Compound concentration 10.0 uM
[45] = target: Muscarinic acetylcholine receptor M4 (Homo sapiens) (UniProt P08173); conditions: Compound concentration 10.0 uM

Sequence of Uncharacterized serine/threonine-protein kinase SBK3 (Homo sapiens) (P0C264 whole entry): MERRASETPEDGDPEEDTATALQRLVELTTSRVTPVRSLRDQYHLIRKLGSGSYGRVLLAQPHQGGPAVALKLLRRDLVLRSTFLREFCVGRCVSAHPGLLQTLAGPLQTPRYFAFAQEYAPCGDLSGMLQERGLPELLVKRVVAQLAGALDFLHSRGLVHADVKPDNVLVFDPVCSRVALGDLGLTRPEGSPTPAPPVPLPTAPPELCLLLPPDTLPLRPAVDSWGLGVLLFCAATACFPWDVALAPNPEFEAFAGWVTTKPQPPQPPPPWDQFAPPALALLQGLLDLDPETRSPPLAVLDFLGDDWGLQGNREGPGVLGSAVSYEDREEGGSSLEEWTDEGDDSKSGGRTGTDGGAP
Sequence of Casein kinase I isoform epsilon (Homo sapiens) (P49674 whole entry, looked up, canonical isoform): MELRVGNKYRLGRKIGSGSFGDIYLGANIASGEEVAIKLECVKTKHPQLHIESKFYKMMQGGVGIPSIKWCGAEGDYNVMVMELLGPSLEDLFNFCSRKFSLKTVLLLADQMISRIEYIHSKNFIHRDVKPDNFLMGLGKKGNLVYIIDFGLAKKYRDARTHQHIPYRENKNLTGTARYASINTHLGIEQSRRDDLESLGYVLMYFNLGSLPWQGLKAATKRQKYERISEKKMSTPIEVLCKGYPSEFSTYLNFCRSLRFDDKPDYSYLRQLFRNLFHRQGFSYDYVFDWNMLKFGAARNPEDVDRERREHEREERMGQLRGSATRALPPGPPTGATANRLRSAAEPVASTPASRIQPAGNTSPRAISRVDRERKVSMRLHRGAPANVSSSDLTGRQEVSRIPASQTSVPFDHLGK
Sequence of Platelet-derived growth factor receptor alpha (Homo sapiens) (P16234 whole entry): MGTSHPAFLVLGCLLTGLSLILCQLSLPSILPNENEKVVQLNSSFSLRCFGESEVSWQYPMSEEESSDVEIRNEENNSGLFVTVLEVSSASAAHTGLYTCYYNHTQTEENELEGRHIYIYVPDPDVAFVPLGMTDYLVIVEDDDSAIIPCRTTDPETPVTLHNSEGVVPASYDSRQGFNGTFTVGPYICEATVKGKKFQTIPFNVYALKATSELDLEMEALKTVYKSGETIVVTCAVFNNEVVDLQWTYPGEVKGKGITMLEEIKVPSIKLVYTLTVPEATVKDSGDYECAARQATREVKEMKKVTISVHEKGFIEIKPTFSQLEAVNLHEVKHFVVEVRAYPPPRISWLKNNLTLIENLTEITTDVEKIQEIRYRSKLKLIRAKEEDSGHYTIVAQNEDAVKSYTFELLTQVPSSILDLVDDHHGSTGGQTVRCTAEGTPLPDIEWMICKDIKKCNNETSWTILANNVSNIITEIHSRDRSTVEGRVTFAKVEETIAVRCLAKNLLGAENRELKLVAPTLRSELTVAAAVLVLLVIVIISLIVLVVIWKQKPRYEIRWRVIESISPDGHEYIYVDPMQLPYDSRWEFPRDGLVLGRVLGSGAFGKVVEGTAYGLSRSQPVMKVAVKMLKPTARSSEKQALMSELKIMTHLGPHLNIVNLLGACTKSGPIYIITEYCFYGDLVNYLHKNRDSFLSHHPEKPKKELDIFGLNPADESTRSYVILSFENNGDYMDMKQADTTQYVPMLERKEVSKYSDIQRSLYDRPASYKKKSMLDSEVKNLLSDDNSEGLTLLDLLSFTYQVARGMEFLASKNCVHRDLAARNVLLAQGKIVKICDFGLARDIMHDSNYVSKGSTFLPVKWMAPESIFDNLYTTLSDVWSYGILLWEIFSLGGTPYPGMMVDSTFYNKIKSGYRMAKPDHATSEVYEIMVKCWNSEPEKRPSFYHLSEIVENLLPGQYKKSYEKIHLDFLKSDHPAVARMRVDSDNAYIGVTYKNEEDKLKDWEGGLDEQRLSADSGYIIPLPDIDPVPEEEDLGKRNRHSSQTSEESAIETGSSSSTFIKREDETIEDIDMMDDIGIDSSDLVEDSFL
Sequence of Proto-oncogene tyrosine-protein kinase receptor Ret (Homo sapiens), P07949 [M918T] (P07949 whole entry M918T): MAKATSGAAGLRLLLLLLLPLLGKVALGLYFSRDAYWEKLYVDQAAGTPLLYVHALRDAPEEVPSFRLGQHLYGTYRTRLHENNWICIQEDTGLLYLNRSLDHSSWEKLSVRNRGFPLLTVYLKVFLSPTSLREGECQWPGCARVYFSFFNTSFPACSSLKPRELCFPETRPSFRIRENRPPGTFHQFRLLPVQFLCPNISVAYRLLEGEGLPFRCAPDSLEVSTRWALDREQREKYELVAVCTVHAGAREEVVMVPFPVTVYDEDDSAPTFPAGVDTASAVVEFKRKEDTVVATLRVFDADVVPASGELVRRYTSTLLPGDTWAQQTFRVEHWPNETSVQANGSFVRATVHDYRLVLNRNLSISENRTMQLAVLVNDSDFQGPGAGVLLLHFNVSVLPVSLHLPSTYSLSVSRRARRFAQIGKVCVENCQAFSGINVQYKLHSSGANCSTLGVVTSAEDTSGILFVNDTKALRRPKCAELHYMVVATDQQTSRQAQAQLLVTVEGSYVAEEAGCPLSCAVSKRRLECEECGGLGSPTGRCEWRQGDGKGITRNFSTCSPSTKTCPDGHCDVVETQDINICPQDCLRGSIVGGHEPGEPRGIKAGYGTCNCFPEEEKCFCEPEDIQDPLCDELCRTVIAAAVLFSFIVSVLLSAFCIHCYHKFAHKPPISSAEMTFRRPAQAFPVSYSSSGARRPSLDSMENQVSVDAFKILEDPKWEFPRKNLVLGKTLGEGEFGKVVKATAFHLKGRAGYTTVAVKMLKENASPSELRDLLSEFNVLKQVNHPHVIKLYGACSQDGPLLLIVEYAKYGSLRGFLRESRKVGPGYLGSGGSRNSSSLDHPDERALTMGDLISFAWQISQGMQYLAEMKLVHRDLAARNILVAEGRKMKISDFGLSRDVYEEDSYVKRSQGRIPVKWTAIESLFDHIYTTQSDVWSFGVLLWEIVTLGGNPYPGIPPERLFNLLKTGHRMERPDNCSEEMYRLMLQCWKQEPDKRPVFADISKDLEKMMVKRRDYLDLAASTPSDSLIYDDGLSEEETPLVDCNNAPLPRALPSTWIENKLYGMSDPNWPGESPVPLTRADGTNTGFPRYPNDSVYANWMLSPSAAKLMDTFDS
Sequence of Tyrosine-protein kinase JAK1 (Homo sapiens) (P23458 whole entry): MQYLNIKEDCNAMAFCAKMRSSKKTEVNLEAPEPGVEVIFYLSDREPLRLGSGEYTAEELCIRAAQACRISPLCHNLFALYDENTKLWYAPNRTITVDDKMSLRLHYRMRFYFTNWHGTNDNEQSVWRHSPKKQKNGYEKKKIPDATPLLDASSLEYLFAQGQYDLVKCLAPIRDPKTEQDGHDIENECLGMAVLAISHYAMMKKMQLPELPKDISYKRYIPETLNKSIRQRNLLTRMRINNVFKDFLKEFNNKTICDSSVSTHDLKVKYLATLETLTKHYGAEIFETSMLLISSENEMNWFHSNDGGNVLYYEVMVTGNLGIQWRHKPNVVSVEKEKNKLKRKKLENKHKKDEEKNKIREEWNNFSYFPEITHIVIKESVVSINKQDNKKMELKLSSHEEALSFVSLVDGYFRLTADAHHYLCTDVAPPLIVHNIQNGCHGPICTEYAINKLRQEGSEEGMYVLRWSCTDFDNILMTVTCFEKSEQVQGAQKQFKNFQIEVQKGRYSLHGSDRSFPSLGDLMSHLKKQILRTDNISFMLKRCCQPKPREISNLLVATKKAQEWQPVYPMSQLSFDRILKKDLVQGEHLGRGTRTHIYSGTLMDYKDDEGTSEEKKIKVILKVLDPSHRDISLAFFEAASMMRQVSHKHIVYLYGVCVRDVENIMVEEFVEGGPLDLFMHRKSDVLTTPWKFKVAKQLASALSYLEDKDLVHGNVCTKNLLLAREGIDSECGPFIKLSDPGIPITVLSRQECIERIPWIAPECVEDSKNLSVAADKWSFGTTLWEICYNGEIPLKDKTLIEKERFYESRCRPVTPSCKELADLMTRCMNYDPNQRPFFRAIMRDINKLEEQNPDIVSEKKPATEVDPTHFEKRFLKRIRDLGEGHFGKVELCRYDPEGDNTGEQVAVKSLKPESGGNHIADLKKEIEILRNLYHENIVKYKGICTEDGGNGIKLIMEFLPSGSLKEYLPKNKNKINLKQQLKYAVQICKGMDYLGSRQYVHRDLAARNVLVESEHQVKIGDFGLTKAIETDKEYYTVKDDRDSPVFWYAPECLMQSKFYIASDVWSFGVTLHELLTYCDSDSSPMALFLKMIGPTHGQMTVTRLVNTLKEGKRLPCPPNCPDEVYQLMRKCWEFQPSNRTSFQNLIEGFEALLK
Sequence of Cyclin-dependent kinase 2 homolog (Plasmodium falciparum (isolate 3D7)) (P61075 whole entry, canonical isoform): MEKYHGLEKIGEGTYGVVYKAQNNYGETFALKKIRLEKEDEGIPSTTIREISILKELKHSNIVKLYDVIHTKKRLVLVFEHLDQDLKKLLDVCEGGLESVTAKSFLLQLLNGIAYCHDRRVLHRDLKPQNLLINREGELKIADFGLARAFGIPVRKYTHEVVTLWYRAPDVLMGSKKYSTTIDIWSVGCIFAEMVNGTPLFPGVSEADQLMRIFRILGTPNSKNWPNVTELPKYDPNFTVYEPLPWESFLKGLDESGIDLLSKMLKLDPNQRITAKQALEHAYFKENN
Sequence of Serine/threonine-protein kinase 24 (Homo sapiens) (Q9Y6E0 whole entry, looked up): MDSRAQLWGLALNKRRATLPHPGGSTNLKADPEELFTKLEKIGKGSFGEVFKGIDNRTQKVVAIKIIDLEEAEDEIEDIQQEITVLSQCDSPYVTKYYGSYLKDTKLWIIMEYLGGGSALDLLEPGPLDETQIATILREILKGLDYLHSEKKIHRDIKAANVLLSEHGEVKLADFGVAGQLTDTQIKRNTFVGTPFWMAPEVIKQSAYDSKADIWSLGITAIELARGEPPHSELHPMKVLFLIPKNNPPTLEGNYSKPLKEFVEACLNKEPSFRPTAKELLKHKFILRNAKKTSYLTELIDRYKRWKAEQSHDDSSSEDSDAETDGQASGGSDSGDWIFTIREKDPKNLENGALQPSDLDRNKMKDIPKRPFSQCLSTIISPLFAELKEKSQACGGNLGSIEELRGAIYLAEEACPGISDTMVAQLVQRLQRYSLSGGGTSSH

CS(=O)(=O)NCC[C@H](NC(=O)c1cncc2c1cnn2-c1ccc(F)cc1)c1ccnc(S(C)(=O)=O)c1 [BI 9307]
residual activity [1]: 100%
residual activity [2]: 99%
residual activity [3]: 95%
residual activity [4]: 85%
residual activity [5]: 98%
residual activity [6]: 100%
residual activity [7]: 100%
residual activity [8]: 100%
residual activity [9]: 99%
residual activity [10]: 100%
residual activity [11]: 100%
residual activity [12]: 87%
residual activity [13]: 100%
residual activity [14]: 93%
residual activity [15]: 100%
residual activity [16]: 100%
residual activity [17]: 79%
residual activity [18]: 100%
residual activity [19]: 89%
residual activity [20]: 96%
residual activity [21]: 100%
residual activity [22]: 100%
residual activity [23]: 92%
residual activity [24]: 100%
residual activity [25]: 95%
residual activity [26]: 100%
residual activity [27]: 100%
residual activity [28]: 100%
residual activity [29]: 100%
residual activity [30]: 100%
residual activity [31]: 100%
residual activity [32]: 95%
residual activity [33]: 100%
residual activity [34]: 100%
residual activity [35]: 100%
residual activity [36]: 100%
residual activity [37]: 100%
residual activity [38]: 96%
residual activity [39]: 100%
residual activity [40]: 100%
residual activity [41]: 100%
residual activity [42]: 98%
inhibition [43]: -5.26%
inhibition [44]: -2.26%
inhibition [45]: 10.8%

CS(=O)(=O)c1cc(C2(NC(=O)c3cncc4c3cnn4-c3ccc(F)cc3)CC2)ccn1 [BI 639667]
residual activity [1]: 85%
residual activity [2]: 72%
residual activity [3]: 100%
residual activity [4]: 100%
residual activity [5]: 95%
residual activity [6]: 84%
residual activity [7]: 100%
residual activity [8]: 83%
residual activity [9]: 100%
residual activity [10]: 98%
residual activity [11]: 73%
residual activity [12]: 90%
residual activity [13]: 100%
residual activity [14]: 100%
residual activity [15]: 74%
residual activity [16]: 100%
residual activity [17]: 75%
residual activity [18]: 100%
residual activity [19]: 100%
residual activity [20]: 96%
residual activity [21]: 100%
residual activity [22]: 100%
residual activity [23]: 100%
residual activity [24]: 100%
residual activity [25]: 47%
residual activity [26]: 82%
residual activity [27]: 85%
residual activity [28]: 100%
residual activity [29]: 100%
residual activity [30]: 90%
residual activity [31]: 100%
residual activity [32]: 93%
residual activity [33]: 100%
residual activity [34]: 81%
residual activity [35]: 100%
residual activity [36]: 100%
residual activity [37]: 100%
residual activity [38]: 100%
residual activity [39]: 73%
residual activity [40]: 90%
residual activity [41]: 100%
residual activity [42]: 91%
inhibition [43]: 6.62%
inhibition [44]: 13.2%
inhibition [45]: 13.3%
